In brackets after ≈: the same amount, converted by molar mass. Read-outs that look alike come from different tables or passages of the source.
Tests used:
[1] = system: H37RvMA; assay: Tuberculosis Alamar Blue/Resazurin assay (MIC); type: cell-based; conditions: Mycobacterium tuberculosis, H37RV, read-out: WT H37Rv MTB Activity
[2] = system: E. coli; assay: Gram negative MIC protocol (OD600, LB, 24 h); conditions: Escherichia coli
Experimental: (§1) Overnight bacterial cultures were grown in LB with no added antibiotics at 37° C. with shaking. A 1:1000 dilution of these cultures into LB was exposed to concentration gradients of compounds in 96-well plates (100 μL per well assay volume). Resulting plates were incubated at 37° C. for 24 h without shaking, and OD600 was measured at the end of the incubation. MICs were determined as the lowest concentrations at which OD600 remained at baseline.

[3] = system: A. baumannii; assay: Gram negative MIC protocol (OD600, LB, 24 h); conditions: Acinetobacter baumannii
Experimental: as §1

[4] = read-out: MIC E. coli delta-TolC LB Media, E. coli delta-TolC, LB media, OD600
[5] = read-out: MIC WT E. coli LB Media, WT E. coli, LB media, OD600
[6] = read-out: MIC A. baumannii LB Media, A. baumannii, LB media, 24 h, OD600
[7] = read-out: MIC A. baumannii LB Media

Compound	MIC ([1]; WT H37Rv MTB)	MIC [2, 4]	MIC [2, 5]	MIC [3, 6]	MIC [1]	MIC [3, 7]	MIC ([2]; read-out: MIC E. coli delta-TolC LB Media)	MIC ([2]; read-out: MIC WT E. coli LB Media)
CC(NCc1ccccc1)C12C[C@H]3C[C@H](C1)C[C@@H](C2)C3 (some centres unmarked) [B80]	> 150 µM	90 µM (≈ 24.2 µg/mL)	250 µM (≈ 67.4 µg/mL)	> 150 µM				
CC(Cc1cccc(C(F)(F)F)c1)NCc1ccccc1 (centres unmarked) [B81]		> 150 µM	> 150 µM		> 150 µM	> 150 µM		
CC(Cc1ncccn1)NCc1ccccc1 (centres unmarked) [B82]		> 150 µM	> 150 µM	> 150 µM	> 150 µM			
c1ccc(CNCCC2CCCOC2)cc1 (centres unmarked) [B83]	> 150 µM	> 150 µM	> 150 µM	> 150 µM				
COc1cc(CC(C)NCc2ccccc2)ncn1 (centres unmarked) [B84]		> 150 µM	> 150 µM	> 150 µM	> 150 µM			
COc1cc(CC(C)NCc2ccccc2)ccn1 (centres unmarked) [B85]		> 150 µM	> 150 µM	> 150 µM	> 150 µM			
C[C@H](NCc1ccccc1)[C@@H]1C[C@H]1c1ccccc1 [B86]	> 150 µM	> 150 µM	> 150 µM	> 150 µM				
CC(NCc1ccccc1)C12CCC(CC1)CC2 (centres unmarked) [B87]	> 150 µM	> 150 µM	300 µM (≈ 73 µg/mL)	> 150 µM				
CC1(C)[C@@H]2C[C@](C)(CNCc3ccccc3)C[C@@H]21 [B88]	> 150 µM	> 150 µM	> 150 µM	> 150 µM				
CC(NCc1ccccc1)C(C)C1CCCCC1 (centres unmarked) [B89]	91 µM (≈ 22.3 µg/mL)	> 150 µM	300 µM (≈ 73.6 µg/mL)	> 150 µM				
CC(C)(CN1CCCOCC1)NCc1ccccc1 [B90]	> 150 µM	> 150 µM	> 150 µM	> 150 µM				
Brc1ccc(CC2(NCc3ccccc3)CC2)cc1 [B91]		90 µM (≈ 28.5 µg/mL)	> 150 µM	> 150 µM	> 150 µM			
CC(C)(CC1CCCCCC1)NCc1ccccc1 [B92]	> 150 µM	> 150 µM	> 150 µM	> 150 µM				
CC(C)(Cc1ccc(C(F)(F)F)cc1)NCc1ccccc1 [B93]		> 150 µM	> 150 µM		> 150 µM	> 150 µM		
C[C@@H](CC1CCCCC1)NCc1ccccc1 [B94]		7 µM (≈ 1.62 µg/mL)	17 µM (≈ 3.93 µg/mL)		> 150 µM	91 µM (≈ 21.1 µg/mL)		
C[C@H](CC1CCCCC1)NCc1ccccc1 [B95]		> 150 µM	> 150 µM		55 µM (≈ 12.7 µg/mL)	> 150 µM		

Compound	MIC ([1]; WT H37Rv MTB)	MIC [2, 4]	MIC [2, 5]	MIC [3, 6]	MIC [1]	MIC [3, 7]	MIC ([2]; read-out: MIC E. coli delta-TolC LB Media)	MIC ([2]; read-out: MIC WT E. coli LB Media)
FC(F)(F)c1ccc(CC2(NCc3ccccc3)CC2)cc1 [B96]		90 µM (≈ 27.5 µg/mL)	> 150 µM	> 150 µM	> 150 µM			
Fc1ccc(CC2(NCc3ccccc3)CC2)cc1 [B97]		> 150 µM	> 150 µM	> 150 µM	> 150 µM			
CC1(c2ccc(F)cc2)N(Cc2ccccc2)C12CC2 (centres unmarked) [B98]				> 150 µM	> 150 µM		150 µM (≈ 40.1 µg/mL)	> 150 µM
c1ccc(CNCC2CCCCCC2)cc1 [B99]	55 µM (≈ 12 µg/mL)	> 150 µM	> 150 µM	> 150 µM				
CC1(CNCc2ccccc2)CCCCCC1 [B100]	> 150 µM	> 150 µM	> 150 µM	> 150 µM				
CC(NCc1ccccc1)C1CCCCCC1 (centres unmarked) [B101]	> 150 µM	40 µM (≈ 9.26 µg/mL)	70 µM (≈ 16.2 µg/mL)	150 µM (≈ 34.7 µg/mL)				
c1ccc(CNCCC2CCCCCC2)cc1 [B102]	91 µM (≈ 21.1 µg/mL)	90 µM (≈ 20.8 µg/mL)	120 µM (≈ 27.8 µg/mL)	150 µM (≈ 34.7 µg/mL)				
CC(CNCc1ccccc1)C1CCCCC1 (centres unmarked) [B103]	> 150 µM	150 µM (≈ 34.7 µg/mL)	150 µM (≈ 34.7 µg/mL)	> 150 µM				
c1ccc(CNCCC23CC4CC(CC(C4)C2)C3)cc1 [B104]	55 µM (≈ 14.8 µg/mL)	91 µM (≈ 24.5 µg/mL)	> 150 µM	> 150 µM				
c1ccc(CNCCc2cccc3c2NCCC3)cc1 [B105]	91 µM (≈ 24.2 µg/mL)	> 150 µM	> 150 µM	> 150 µM				
CC(Cc1ccc2ccccc2c1)NCc1ccccc1 (centres unmarked) [B106]		> 150 µM	> 150 µM	> 150 µM	150 µM (≈ 41.3 µg/mL)			
c1ccc(CNCC2CC23CCCc2ccccc23)cc1 (centres unmarked) [B107]	> 150 µM	> 150 µM	> 150 µM	> 150 µM				
CC1(C)Cc2cccc(CCNCc3ccccc3)c2O1 [B108]		> 150 µM	> 150 µM		> 150 µM	> 150 µM		
CC1(C)CCC2(CC2CNCc2ccccc2)c2ccccc21 (centres unmarked) [B109]	55 µM (≈ 16.8 µg/mL)	91 µM (≈ 27.8 µg/mL)	> 150 µM	150 µM (≈ 45.8 µg/mL)				
CC(NCc1ccccc1)C1Cc2ccccc21 (centres unmarked) [B110]	> 150 µM	> 150 µM	> 150 µM	> 150 µM				
COc1ccc(CCNCc2ccccc2)c2ccccc12 [B111]	33 µM (≈ 9.62 µg/mL)	150 µM (≈ 43.7 µg/mL)	> 150 µM	150 µM (≈ 43.7 µg/mL)				

From patent US11261201B2 (priority 2018, dated 2022)
